Measurements reported in patent US20130040291A1, “Detection and Quantification of Cellular Stress Response Resolution Pathway Expression and Functionality and the Effects of Agents or Conditions Thereupon” (priority 2011, published 2013).

Experiments:
CDNR4 cells [1] = assay: Midway cloning efficiency (mCE), pre-calibrated stress conditions pro-survival pathway function; format: cell-based, murine; settings: ENU 20 micrograms/ml 1 hour, 2 weeks (day 14) post-exposure
Text: mCE procedure #2 for cells that grow attached to a surface or basement membrane and/or that have the following growth characteristics when grown in tissue culture. The second method is novel and is recommended for use with epithelial cells, cells that form tight junctions, cells that produce mucinous material during in vitro cell culture, and/or cells that attach to a basement membrane. The latter characteristics are typical of epithelial cells but are not unique to this cell type alone.
This procedure is used to obtain an accurate cell count in vials of very dilute cells that are used for plating cloning efficiency plates. […]
For this procedure, the cell aliquot that was set aside during the initial cell counting is divided into 2 equal groups and diluted as follows. […] Approximately 12 to 15 hours later, the average number of cells per milliliter on the 6 or 12 well plates for both groups A and B is determined using light microscopy to visualize and count the cells. […] Viable cells are counted; dead cells or cell fragments are not counted. […] The final cloning efficiency is determined using the formula presented above (see phase 3 step 5). […]

CDNR4 cells [2] = assay: Determination of the SRID-50% level of 6-TG (calibrated stress conditions); format: cell-based, murine
Experimental: The calibrated stress conditions and the SRID-x % level are determined ideally using parental, control, or vehicle-exposed cells. This portion of the assay requires that several variables, including cell plating density, calibrated stress conditions level, and duration of stress conditions exposure be optimized simultaneously. These variables are interdependent such that each affects the outcome of the other, thereby making this portion of the assay one of the most critical. To achieve high sensitivity for detection of assay endpoints, it is important that the maximum number of cells be evaluated; however, optimal calibrated stress conditions are achieved at relatively low cell plating densities. In addition, cell plating densities and the SKID-x % level of stress inducing agent chosen for use in the assay must be such that fewer than one positive endpoint per well occurs in the assay. Using cell survival as an example, if multiple surviving cell clones are identified in the same well(s) during an experiment, then the cell plating density must be reduced and/or the SRID-x % level must be increased so that the frequency of occurrence of surviving clones is reduced to less than one per well. Thus, optimization of these variables is necessary.
Pilot studies that evaluate a range of cell plating densities and a range of calibrated stress conditions levels for the stress inducing agent of choice are used and are applied to untreated, control or parental cells. It is advisable to use a low plating density that results in rapid expression of stress resolution pathways (within 3 to 4 days where possible), or as quickly as possible after calibrated stress conditions exposure. In spite of potentially significant differences between cells of different types from different tissues and from different species, preliminary results from the SR assay support the conclusion that the optimal plating density for many cell types falls within a predictable range. […] These values can serve as starting points for empirical determination of the optimal cell plating density for the cells of interest to be used in the assay.
After estimating the optimal cell plating density, dose response curves are generated for the calibrated stress conditions agent of interest. For experiments in which cell survival is the phenotype of interest, work with the assay completed to date supports the conclusion that calibrated stress conditions levels that reduce expression of pro-survival pathways to a level that results in survival of one or fewer clones in 50% of the wells of a 96 well plate (defined as the SRID-50%) is the optimal level for assessment of damage avoidance pro-survival pathways. Use of these levels also results in a sufficiently robust expression of damage tolerance paths to make it possible to evaluate differences or changes in expression of these pathways between cell types and/or between differing exogenous exposures. Because cell plating density and level of calibrated stress inducing agent are inter-dependent, it may be necessary to perform several pilot studies using differing cell plating densities and a range of stress-response inducing levels to find the optimal combination of use with the cell type of interest in the assay.
There are two limits associated with Poisson distribution principles that must be considered in selecting the SRID-x % level of stress inducing agent. First, stress induction levels that result in a response frequency, for the response type of interest, that is near or equal to 100% of the sites being evaluated should be avoided and the same considerations are true for stress induction levels resulting in responses frequencies near or equal to 0%. The SR assay cannot accurately quantify response frequencies near 100% or near 0%, and this limitation forms the one of the factors affecting the selection of the SRID-x % level. […]

For CCN(N=O)C(N)=O [ENU, ethylnitrosourea], the “mCE (midway cloning efficiency)” value (CDNR4 cells [1]) was 34.2%, the “SRID-50% of ENU-exposed cells” value (CDNR4 cells [2]; ENU 20 micrograms/ml 1 hour, 2 weeks earlier, 600 cells per well, stress agent 6-TG) was 2.5 micrograms/ml and the “reduction in the functionality of pro-survival cellular stress response pathways” value (CDNR4 cells [2]; ENU-exposed vs unexposed CDNR4 cells, from SRID-50% levels) was 20 fold. The “SRID-50% level of ENU-exposed CDNR4 cells” value (CDNR4 cells [2]; pre-exposure 20 micrograms ENU 1 hour, tested two weeks later, 6-TG for 4 days) was 2.5 micrograms 6-TG.
